Test results published in ChEMBL document CHEMBL2380208, “Novel quinoline derivatives as inhibitors of bacterial DNA gyrase and topoisomerase IV” (Bioorg Med Chem Lett, 2013).
Values after ≈ are worked out from the molar mass of the structure shown.

Key:
Staphylococcus aureus [1] = assay: Antibacterial activity against fluoroquinolone-resistant Staphylococcus aureus 1095; format: functional
DNA gyrase = DNA gyrase (Staphylococcus aureus, UniProt P0A0K8+P20831); assay: Inhibition of Staphylococcus aureus DNA gyrase; format: protein-complex assay
[2] = Inhibition of Staphylococcus aureus DNA topoisomerase 4
Staphylococcus aureus [3] = assay: Antibacterial activity against Staphylococcus aureus 1146; format: functional
Staphylococcus aureus [4] = assay: Antibacterial activity against fluoroquinolone-resistant Staphylococcus aureus harboring DNA gyrase M121K mutant; format: functional
Staphylococcus aureus [5] = assay: Antibacterial activity against fluoroquinolone-resistant Staphylococcus aureus harboring DNA gyrase D83N mutant; format: functional

Structure (SMILES)	MIC (Staphylococcus aureus [1]) [µg/mL]	IC50 (DNA gyrase) [µM]	IC50 [2] [µM]	MIC (Staphylococcus aureus [3]) [µg/mL]	MIC (Staphylococcus aureus [4]) [µg/mL]	MIC (Staphylococcus aureus [5]) [µg/mL]
COc1ccc2nccc([C@@H](O)CC[C@@H]3CCN(C4CC(c5ccncn5)C4)C[C@@H]3C(=O)O)c2c1 (stereo partly specified)	> 64	19	120	64 (≈ 134 µM)		
COc1ccc2nccc([C@@H](O)CC[C@@H]3CCN(C4CC(c5cc(F)ccc5C(F)(F)F)C4)C[C@@H]3C(=O)O)c2c1 (stereo partly specified)	0.5 (≈ 0.892 µM)	9.4	60	0.25 (≈ 0.446 µM)	32 (≈ 57.1 µM)	16 (≈ 28.5 µM)
COc1ccc2nccc([C@@H](O)CC[C@@H]3CCN(C4CC(c5ccno5)C4)C[C@@H]3C(=O)O)c2c1 (stereo partly specified)	8 (≈ 17.2 µM)	3.13	60	2 (≈ 4.3 µM)		
COc1ccc2nccc([C@@H](O)CC[C@@H]3CCN(C4CC(c5ccnc(C)n5)C4)C[C@@H]3C(=O)O)c2c1 (stereo partly specified)	> 64	50	> 120	> 64		
COc1ccc2nccc([C@@H](O)CC[C@@H]3CCN(C4CC(c5ccn(C)n5)C4)C[C@@H]3C(=O)O)c2c1 (stereo partly specified)	> 64	19	> 120	> 64		
COc1ccc2nccc([C@@H](O)CC[C@@H]3CCN(C4CC(c5ccn[nH]5)C4)C[C@@H]3C(=O)O)c2c1 (stereo partly specified)	> 64	> 25	> 120	> 64		
COc1ccc2nccc([C@@H](O)CC[C@@H]3CCN(C4CC(c5ccc(-c6ccccc6)cc5)C4)C[C@@H]3C(=O)O)c2c1 (stereo partly specified)	> 64	> 50	120	> 64		
COc1ccc2nccc([C@@H](O)CC[C@@H]3CCN(C4CC(c5cccc(F)c5C)C4)C[C@@H]3C(=O)O)c2c1 (stereo partly specified)	0.5 (≈ 0.987 µM)	25	> 120		> 64	> 64
COc1ccc(F)c(C2CC(N3CC[C@@H](CC[C@H](O)c4ccnc5ccc(OC)cc45)[C@@H](C(=O)O)C3)C2)c1 (stereo partly specified)	4 (≈ 7.65 µM)	50	> 120		> 64	> 64
COc1ccc2nccc([C@@H](O)CC[C@@H]3CCN(C4CC(c5c(F)cccc5Cl)C4)C[C@@H]3C(=O)O)c2c1 (stereo partly specified)		4.7	60		32 (≈ 60.7 µM)	64 (≈ 121 µM)
COc1ccc2nccc([C@@H](O)CC[C@@H]3CCN(C4CC(c5cc(C(F)(F)F)ccc5F)C4)C[C@@H]3C(=O)O)c2c1 (stereo partly specified)	4 (≈ 7.14 µM)	25	> 100			
COc1ccc2nccc([C@@H](O)CC[C@@H]3CCN(C4CC(c5c(F)ccc(Cl)c5F)C4)C[C@@H]3C(=O)O)c2c1 (stereo partly specified)	0.25 (≈ 0.459 µM)	3.13	25		> 64	> 64
COc1ccc2nccc([C@@H](O)CC[C@@H]3CCN(C4CC(c5ccc(Cl)cc5F)C4)C[C@@H]3C(=O)O)c2c1 (stereo partly specified)	1 (≈ 1.9 µM)	6.25	> 100		> 64	> 64
COc1ccc2nccc([C@@H](O)CC[C@@H]3CCN(C4CC(c5c(F)cc(F)cc5F)C4)C[C@@H]3C(=O)O)c2c1 (stereo partly specified)	0.5 (≈ 0.946 µM)	6.25	120		> 64	> 64
COc1ccc2nccc([C@@H](O)CC[C@@H]3CCN(C4CC(c5cc(C)ccc5F)C4)C[C@@H]3C(=O)O)c2c1 (stereo partly specified)		1.56	75		> 64	> 64
COc1ccc2nccc([C@@H](O)CC[C@@H]3CCN(C4CC(c5cccc(Cl)c5F)C4)C[C@@H]3C(=O)O)c2c1 (stereo partly specified)	≤ 0.0625	2.4	75		> 64	> 64
COc1ccc2nccc([C@@H](O)CC[C@@H]3CCN(C4CC(c5cc(F)c(F)cc5F)C4)C[C@@H]3C(=O)O)c2c1 (stereo partly specified)		1.56	37	≤ 0.0625	64 (≈ 121 µM)	32 (≈ 60.5 µM)
COc1ccc2nccc([C@@H](O)CC[C@@H]3CCN(C4CC(c5cccc(C(F)(F)F)c5F)C4)C[C@@H]3C(=O)O)c2c1 (stereo partly specified)	0.5 (≈ 0.892 µM)	6.25	200		> 64	
COc1ccc2nccc([C@@H](O)CC[C@@H]3CCN(C4CC(c5ccc(C(F)(F)F)cc5F)C4)C[C@@H]3C(=O)O)c2c1 (stereo partly specified)	4 (≈ 7.14 µM)	6.25	> 200			> 64
COc1ccc2nccc([C@@H](O)CC[C@@H]3CCN(C4CC(c5ccc(Br)cc5F)C4)C[C@@H]3C(=O)O)c2c1 (stereo partly specified)	8 (≈ 14 µM)	6.25	> 200		> 64	> 64
COc1ccc2nccc([C@@H](O)CC[C@@H]3CCN(C4CC(c5cccc(OC)c5F)C4)C[C@@H]3C(=O)O)c2c1 (stereo partly specified)	64 (≈ 122 µM)	19	> 200			> 64
COc1ccc2nccc([C@@H](O)CC[C@@H]3CCN(C4CC(c5ccc(F)c(C#N)c5)C4)C[C@@H]3C(=O)O)c2c1 (stereo partly specified)	> 64	3.13	> 200			
